# Values quoted from earlier work in patent US11864558B2, “Herbicidal compositions containing N-phosphonomethyl glycine and an auxin herbicide” (Monsanto Technology LLC, priority 2004, dated 2024).
# Settings: acid form; 25° C.
structure (smiles),measurement,value
"O=C(O)CNCP(=O)(O)O [glyphosate, N-phosphonomethylglycine]",solubility in water,1.16 % by weight
